Measured values as given in patent US20120309750A1, “5-MEMBERED HETEROCYCLE DERIVATIVES AND MANUFACTURING PROCESS THEREOF” (ILDONG PHARM CO., LTD., priority 2010, published 2012).

Assays:
yeast HSP90 = yeast HSP90 (Saccharomyces cerevisiae, UniProt P02829); assay: Hsp90 ATPase assay (malachite green); type: biochemical
Procedure: (§1) For present invention, the ATPase activity of yeast HSP90 was measured using malachite green assay. Formula I compounds for primary antitumoral activity were treated in human colorectal cancer cells (HCT116) showing increased expression levels of HSP90 client protein and cotoxicity IC50 values was measured as a result.

[1] = test system: human colorectal cancer cells (HCT116); assay: Growth inhibition assay (cytotoxicity) in HCT116; type: cell-based; conditions: HCT-116
Procedure: as §1

yeast HSP90, sequence (P02829 whole entry): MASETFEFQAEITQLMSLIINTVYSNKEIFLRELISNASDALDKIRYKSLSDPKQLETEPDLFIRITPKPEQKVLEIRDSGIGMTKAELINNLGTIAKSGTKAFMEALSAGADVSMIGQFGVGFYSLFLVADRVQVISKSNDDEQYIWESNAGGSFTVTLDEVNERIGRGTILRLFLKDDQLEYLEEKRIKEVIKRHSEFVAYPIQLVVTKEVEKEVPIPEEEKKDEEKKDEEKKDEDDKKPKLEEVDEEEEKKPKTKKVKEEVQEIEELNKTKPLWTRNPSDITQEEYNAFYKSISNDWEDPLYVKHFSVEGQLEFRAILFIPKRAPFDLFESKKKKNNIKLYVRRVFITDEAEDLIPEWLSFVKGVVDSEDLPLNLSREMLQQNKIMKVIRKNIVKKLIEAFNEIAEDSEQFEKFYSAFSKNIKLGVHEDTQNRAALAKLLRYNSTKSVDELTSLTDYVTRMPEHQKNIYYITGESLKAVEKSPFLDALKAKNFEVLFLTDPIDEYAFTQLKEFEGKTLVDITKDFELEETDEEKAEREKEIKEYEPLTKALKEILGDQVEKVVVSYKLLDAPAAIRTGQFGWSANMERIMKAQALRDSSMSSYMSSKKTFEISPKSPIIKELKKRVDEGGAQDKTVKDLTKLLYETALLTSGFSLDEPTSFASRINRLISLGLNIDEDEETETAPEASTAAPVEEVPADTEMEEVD

Row | IC50 (yeast HSP90) [nM] | Compound | IC50 [1] [nM]
1 | < 500 | CCNC(=O)c1noc(-c2cc(C(C)C)c(O)cc2O)c1-c1cc(CN2CCSCC2)no1 [Compound I-47, 5-(2,4-Dihydroxy-5-isopropylphenyl)-N-ethyl-3′-(thiomorpholinomethyl)-4,5′-biisoxazole-3-carboxamide] | < 500
2 | 500 to 1000 | CCNC(=O)c1noc(-c2cc(C(C)C)c(O)cc2O)c1-c1cc(C#N)no1 [Compound I-48, 3′-Cyano-5-(2,4-dihydroxy-5-isopropylphenyl)-N-ethyl-4,5′-biisoxazole-3-carboxamide] | < 500
3 | 500 to 1000 | CCNC(=O)c1noc(-c2cc(C(C)C)c(O)cc2O)c1-c1cc(-c2ccccc2)no1 [Compound I-49, 5-(2,4-Dihydroxy-5-isopropylphenyl)-N-ethyl-3′-phenyl-4,5′-biisoxazole-3-carboxamide] | 500 to 1000
4 | 500 to 1000 | CCNC(=O)c1noc(-c2cc(C(C)C)c(O)cc2O)c1-c1cc(C(=O)N2CCSCC2)no1 [Compound I-50, 5-(2,4-Dihydroxy-5-isopropylphenyl)-N-ethyl-3′-(thiomorpholine-4-carbonyl)-4,5′-biisoxazole-3-carboxamide] | < 500
5 | < 500 | CCNC(=O)c1noc(-c2cc(C(C)C)c(O)cc2O)c1-c1cc(C(OC)OC)no1 [Compound I-51, 5-(2,4-Dihydroxy-5-isopropylphenyl)-3′-(dimethoxymethyl)-N-ethyl-4,5′-biisoxazole-3-carboxamide] | < 500
6 | < 500 | CCNC(=O)c1noc(-c2cc(C(C)C)c(O)cc2O)c1-c1cc(/C=N/OC)no1 [Compound I-52, 5-(2,4-Dihydroxy-5-isopropylphenyl)-N-ethyl-3′-((methoxyimino)methyl)-4,5′-biisoxazole-3-carboxamide] | < 500
7 | 500 to 1000 | CCNC(=O)c1noc(-c2cc(C(C)C)c(O)cc2O)c1-c1cc(/C=N/O)no1 [Compound I-53, 5-(2,4-Dihydroxy-5-isopropylphenyl)-N-ethyl-3′-((hydroxyimino)methyl)-4,5′-biisoxazole-3-carboxamide] | < 500
8 | 500 to 1000 | C=CCO/N=C/c1cc(-c2c(C(=O)NCC)noc2-c2cc(C(C)C)c(O)cc2O)on1 [Compound I-54, 3′-((Allyloxyimino)methyl)-5-(2,4-dihydroxy-5-isopropylphenyl)-N-ethyl-4,5′-biisoxazole-3-carboxamide] | < 500
9 | 500 to 1000 | CCNC(=O)c1noc(-c2cc(C(C)C)c(O)cc2O)c1-c1cc(/C=N/OCC)no1 [Compound I-55, 5-(2,4-Dihydroxy-5-isopropylphenyl)-3′-((ethoxyimino)methyl)-N-ethyl-4,5′-biisoxazole-3-carboxamide] | < 500
10 | < 500 | CCNC(=O)c1noc(-c2cc(C(C)C)c(O)cc2O)c1-c1cc(C(=O)NC)no1 [Compound I-56, 5-(2,4-Dihydroxy-5-isopropylphenyl)-N^3-ethyl-N^3′-methyl-4,5′-biisoxazole-3,3′-dicarboxamide] | < 500
11 | 500 to 1000 | CCNC(=O)c1noc(-c2cc(C(C)C)c(O)cc2O)c1-c1noc(C(F)(F)F)n1 [Compound I-57, 5-(2,4-Dihydroxy-5-isopropylphenyl)-N-ethyl-4-(5-(trifluoromethyl)-1,2,4-oxadiazol-3-yl)isoxazole-3-carboxamide] | < 500
12 | 500 to 1000 | CCNC(=O)c1noc(-c2cc(C(C)C)c(O)cc2O)c1-c1noc(C(=O)OC)n1 [Compound I-58, Methyl 3-(5-(2,4-dihydroxy-5-isopropylphenyl)-3-(ethylcarbamoyl)isoxazol-4-yl)-1,2,4-oxadiazole-5-carboxylate] | > 1000
13 | 500 to 1000 | CCNC(=O)c1nc(-c2c(C(=O)NCC)noc2-c2cc(C(C)C)c(O)cc2O)no1 [Compound I-59, 3-(5-(2,4-Dihydroxy-5-isopropylphenyl)-3-(ethylcarbamoyl)isoxazol-4-yl)-N-ethyl-1,2,4-oxadiazole-5-carboxamide] | < 500
14 | < 500 | CCNC(=O)c1noc(-c2cc(C(C)C)c(O)cc2O)c1-c1noc(-c2ccccc2)n1 [Compound I-61, 5-(2,4-Dihydroxy-5-isopropylphenyl)-N-ethyl-4-(5-phenyl-1,2,4-oxadiazol-3-yl) isoxazole-3-carboxamide] | < 500
15 | < 500 | CCNC(=O)c1noc(-c2cc(C(C)C)c(O)cc2O)c1-c1noc(CC)n1 [Compound I-62, 5-(2,4-Dihydroxy-5-isopropylphenyl)-N-ethyl-4-(5-ethyl-1,2,4-oxadiazol-3-yl)isoxazole-3-carboxamide] | < 500
16 | < 500 | CCNC(=O)c1noc(-c2cc(C(C)C)c(O)cc2O)c1-c1noc(-c2ccco2)n1 [Compound I-63, 5-(2,4-Dihydroxy-5-isopropylphenyl)-N-ethyl-4-(5-(furan-2-yl)-1,2,4-oxadiazol-3-yl)isoxazole-3-carboxamide] | < 500
17 | < 500 | CCNC(=O)c1noc(-c2cc(C(C)C)c(O)cc2O)c1-c1noc(C(=O)N(C)C)n1 [Compound I-64, 3-(5-(2,4-Dihydroxy-5-isopropylphenyl)-3-(ethylcarbamoyl)isoxazol-4-yl)-N,N-dimethyl-1,2,4-oxadiazole-5-carboxamide] | < 500
18 | < 500 | CCNC(=O)c1noc(-c2cc(C(C)C)c(O)cc2O)c1-c1noc(C(C)C)n1 [Compound I-65, 5-(2,4-Dihydroxy-5-isopropylphenyl)-N-ethyl-4-(5-isopropyl-1,2,4-oxadiazol-3-yl)isoxazole-3-carboxamide] | < 500
19 | 500 to 1000 | CCNC(=O)c1noc(-c2cc(C(C)C)c(O)cc2O)c1-c1ncon1 [Compound I-66, 5-(2,4-Dihydroxy-5-isopropylphenyl)-N-ethyl-4-(1,2,4-oxadiazol-3-yl)isoxazole-3-carboxamide] | < 500
20 | 500 to 1000 | CCNC(=O)c1noc(-c2cc(C(C)C)c(O)cc2O)c1-c1noc(C(=O)N2CCOCC2)n1 [Compound I-67, 5-(2,4-Dihydroxy-5-isopropylphenyl)-N-ethyl-4-(5-(morpholine-4-carbonyl)-1,2,4-oxadiazol-3-yl)isoxazole-3-carboxamide] | 500 to 1000
21 | 500 to 1000 | CCNC(=O)c1noc(-c2cc(C(C)C)c(O)cc2O)c1-c1noc(C(=O)N2CCCC2)n1 [Compound I-68, 5-(2,4-Dihydroxy-5-isopropylphenyl)-N-ethyl-4-(5-(pyrrolidine-1-carbonyl)-1,2,4-oxadiazol-3-yl)isoxazole-3-carboxamide] | < 500
22 | 500 to 1000 | CCNC(=O)c1noc(-c2cc(C(C)C)c(O)cc2O)c1-c1noc(N2CCCC2)n1 [Compound I-69, 5-(2,4-Dihydroxy-5-isopropylphenyl)-N-ethyl-4-(5-(pyrrolidin-1-yl)-1,2,4-oxadiazol-3-yl)isoxazole-3-carboxamide] | < 500
23 | 500 to 1000 | CCNC(=O)c1noc(-c2cc(C(C)C)c(O)cc2O)c1-c1noc(C(Cl)(Cl)Cl)n1 [Compound I-70, 5-(2,4-Dihydroxy-5-isopropylphenyl)-N-ethyl-4-(5-(trichloromethyl)-1,2,4-oxadiazol-3-yl)isoxazole-3-carboxamide] | 500 to 1000
